In assay [1] the test system is Mycobacterium tuberculosis. The assay can be described thus: Antimycobacterial activity against Mycobacterium tuberculosis H37Rv by agar dilution method. It counts as functional.
Assay [2] deals with Mycolicibacterium smegmatis. The experiment in a line: Antimycobacterial activity against Mycobacterium smegmatis ATCC 14468 by agar dilution method. It counts as functional.

Converted amounts (≈) assume the structure as drawn.

As usually defined, the MIC is the least concentration at which growth counts as inhibited. In the case of `COc1ccc(/C=C2\CN(C)CC3=C2OC(N)=C(C#N)C3c2ccc(OC)cc2)cc1` (centres undefined), the MIC in assay [1] worked out at 30.1 µM (≈ 12.5 µg/mL); in assay [2], 60.2 µM (≈ 25 µg/mL).
For the molecule `COc1c(N2CCNC(C)C2)c(F)cc2c(=O)c(C(=O)O)cn(C3CC3)c12` (centres undefined) [GATIFLOXACIN], the MIC in assay [1] and in assay [2] was 2.08 µM (≈ 0.781 µg/mL) each time.
Turning to `Cc1ccccc1/C=C1\CN(C)CC2=C1OC(N)=C(C#N)C2c1ccccc1C` (centres undefined), the values for the MIC in assay [1] and in assay [2] were 16.3 µM (≈ 6.26 µg/mL) and 32.6 µM (≈ 12.5 µg/mL), respectively.
On the same counts, the results for `Cc1ccc(/C=C2\CN(C)CC3=C2OC(N)=C(C#N)C3c2ccc(C)cc2)cc1` (centres undefined) are 16.3 µM (≈ 6.26 µg/mL) and 65.3 µM (≈ 25 µg/mL).
On the same counts, the results for `CN1CC2=C(OC(N)=C(C#N)C2c2ccc(F)cc2)/C(=C/c2ccc(F)cc2)C1` (centres undefined) are 0.97 µM (≈ 0.38 µg/mL) and 32 µM (≈ 12.5 µg/mL).
`CN1CC2=C(OC(N)=C(C#N)C2c2ccc(Cl)cc2Cl)/C(=C/c2ccc(Cl)cc2Cl)C1` (centres undefined): the MIC was 25.4 µM (≈ 12.5 µg/mL) in assay [1] and 50.7 µM (≈ 25 µg/mL) in assay [2].
Taken in the same sequence, the figures for `CN1CC2=C(OC(N)=C(C#N)C2c2cccc(F)c2)/C(=C/c2cccc(F)c2)C1` (centres undefined) were 0.99 µM (≈ 0.388 µg/mL) and 32 µM (≈ 12.5 µg/mL).
Taken in the same sequence, the figures for `CN1CC2=C(OC(N)=C(C#N)C2c2ccc(Cl)cc2)/C(=C/c2ccc(Cl)cc2)C1` (centres undefined) were 0.92 µM (≈ 0.39 µg/mL) and 3.68 µM (≈ 1.56 µg/mL).
Taken in the same sequence, the figures for `NNC(=O)c1ccncc1` [ISONIAZID] were 0.36 µM (≈ 0.0494 µg/mL) and 45.6 µM (≈ 6.25 µg/mL).
Regarding `COc1ccccc1/C=C1\CN(C)CC2=C1OC(N)=C(C#N)C2c1ccccc1OC` (centres undefined), the MIC in assay [1] came out at 15.1 µM (≈ 6.26 µg/mL); in assay [2], 30.1 µM (≈ 12.5 µg/mL).
With `CN1CC2=C(OC(N)=C(C#N)C2c2cccc([N+](=O)[O-])c2)/C(=C/c2cccc([N+](=O)[O-])c2)C1` (centres undefined), the MIC in assay [1] was determined as 1.75 µM (≈ 0.78 µg/mL); in assay [2], 56.2 µM (≈ 25 µg/mL).
On the same counts, the results for `CN1CC2=C(OC(N)=C(C#N)C2/C=C/c2ccccc2)/C(=C/C=C/c2ccccc2)C1` (centres undefined) are 30.7 µM (≈ 12.5 µg/mL) and 30.7 µM (≈ 12.5 µg/mL).
Taken in the same sequence, the figures for `CN1CC2=C(OC(N)=C(C#N)C2c2ccccc2)/C(=C/c2ccccc2)C1` (centres undefined) were 35.2 µM (≈ 12.5 µg/mL) and 70.4 µM (≈ 25 µg/mL).
On the same counts, the results for `CN1CC2=C(OC(N)=C(C#N)C2c2ccco2)/C(=C/c2ccco2)C1` (centres undefined) are 37.3 µM (≈ 12.5 µg/mL) and 37.3 µM (≈ 12.5 µg/mL).
Turning to `CN1CC2=C(OC(N)=C(C#N)C2c2ccccc2Cl)/C(=C/c2ccccc2Cl)C1` (centres undefined), the MIC was determined as 1.84 µM (≈ 0.781 µg/mL) in assay [1] and 59 µM (≈ 25 µg/mL) in assay [2].
In the case of `CN1CC2=C(OC(N)=C(C#N)C2c2cccs2)/C(=C/c2cccs2)C1` (centres undefined), the minimum inhibitory concentration (MIC) in assay [1] turned out to be 68.1 µM (≈ 25 µg/mL); in assay [2], 34.1 µM (≈ 12.5 µg/mL).
Taken in the same sequence, the figures for `CN1CC2=C(OC(N)=C(C#N)C2c2ccc(N(C)C)cc2)/C(=C/c2ccc(N(C)C)cc2)C1` (centres undefined) were 0.43 µM (≈ 0.19 µg/mL) and 28.3 µM (≈ 12.5 µg/mL).

The values are drawn from ChEMBL document CHEMBL1140558, “An atom efficient, solvent-free, green synthesis and antimycobacterial evaluation of 2-amino-6-methyl-4-aryl-8-[(E)-arylmethylidene]-5,6,7,8-tetrahydro-4H-pyrano[3,2-c]pyridine-3-carbonitriles” (2007).
